Assay results taken from patent publication US7091183B1 (Boston Medical Center Corporation, priority 1996, dated 2006).
Several values for one entry are separate records, joined by “and”; a condition that tells them apart may be missing. Identical values can stand only once. Like-named read-outs stand apart in the source and are kept apart here. Where no end group is shown, it is not given here.

Legend:
fasted anesthetized rats = assay: Intravenous infusion of peptides in fasting anesthetized rats, plasma insulin; type: in vivo, rat; settings: for plasma insulin level after infusion: 30 min i.v. infusion
rats = settings: exendin-treated rats, cited from earlier work
[1] = in vivo; cited from earlier work
GIP receptor [2] = settings: cited from earlier work
rat GIP receptor [3] = molecular target: T1, rat GIP receptor (Rattus norvegicus, UniProt P43219); assay: cAMP-dependent β-galactosidase production in LGIPR2 cells (agonist activity); type: cell-based; settings: for stimulation of cAMP-dependent β-galactosidase production (versus GIP (1–42) / above control levels): 10^−8 M peptide, 4 h; for β-gal level stimulated by peptide alone: FIG. 1B
T1 construct: expressed in transfected cells; host or cells: L cells (LGIPR2), also carrying a VIP-promoter/lacZ cAMP reporter
T1 sequence (P43219 19-455): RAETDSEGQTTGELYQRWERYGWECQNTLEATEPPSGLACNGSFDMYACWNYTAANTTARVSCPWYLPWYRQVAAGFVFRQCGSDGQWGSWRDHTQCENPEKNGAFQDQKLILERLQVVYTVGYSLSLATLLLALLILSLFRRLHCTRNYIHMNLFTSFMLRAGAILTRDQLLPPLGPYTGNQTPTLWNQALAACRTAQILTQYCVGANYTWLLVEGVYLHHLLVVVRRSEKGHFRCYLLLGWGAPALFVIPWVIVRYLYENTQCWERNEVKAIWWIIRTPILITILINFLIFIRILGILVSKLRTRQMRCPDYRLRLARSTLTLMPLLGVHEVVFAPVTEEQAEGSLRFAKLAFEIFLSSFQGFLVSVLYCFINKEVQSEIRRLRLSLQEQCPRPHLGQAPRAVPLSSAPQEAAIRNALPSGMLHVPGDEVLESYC
Text: LGIPR2 cells are stably transfected with a cAMP-dependent promoter from the VIP gene fused to the bacterial lac Z gene. When intracellular cAMP increases within these cells, lac Z gene transcription is activated, resulting in the accumulation of its product, β-galactosidase. The measurement of β-galactosidase in this system provided a convenient, inexpensive, and nonradioactive method for detecting changes in the levels of intracellular cAMP. […] The medium was then removed and wells rinsed once with phosphate-buffered saline (PBS). The plates were then blotted briefly and frozen overnight at −70° C., and, after the addition of chlorophenol red-β-D-galactopyranoside, accumulated β-galactosidase was detected using a calorimetric assay, as described previously (Usdin, et al., 1993, Endocrinology, 133:2861–2870). […] Natl. Acad. Sci. USA, 90:1992–1996).

GIP receptor [4] = molecular target: T2, GIP receptor (Mus musculus, UniProt Q0P543); settings: βTC3 cells; cited from earlier work
T2 construct: host or cells: βTC3 cells (endogenous receptor)
T2 sequence (Q0P543 19-460): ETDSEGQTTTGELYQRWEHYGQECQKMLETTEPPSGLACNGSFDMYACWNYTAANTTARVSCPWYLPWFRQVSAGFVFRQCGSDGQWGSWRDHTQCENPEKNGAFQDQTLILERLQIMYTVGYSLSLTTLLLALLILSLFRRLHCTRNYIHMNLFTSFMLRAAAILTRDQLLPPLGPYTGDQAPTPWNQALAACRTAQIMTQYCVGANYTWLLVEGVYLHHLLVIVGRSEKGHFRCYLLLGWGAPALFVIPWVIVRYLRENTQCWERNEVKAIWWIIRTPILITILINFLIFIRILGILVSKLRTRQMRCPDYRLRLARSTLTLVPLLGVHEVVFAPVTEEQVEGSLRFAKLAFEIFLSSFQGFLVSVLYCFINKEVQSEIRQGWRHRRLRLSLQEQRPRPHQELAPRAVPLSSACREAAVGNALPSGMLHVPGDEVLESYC

rat GIP receptor [5] = molecular target: T1, rat GIP receptor; assay: Inhibition of GIP (1–42)-stimulated cAMP-dependent β-galactosidase production in LGIPR2 cells; type: cell-based; settings: 10^−8 M GIP (1–42) plus fragment at 10^−8 M or 10^−6 M, 4 h
Protocol: LGIPR2 cells are stably transfected with a cAMP-dependent promoter from the VIP gene fused to the bacterial lac Z gene. When intracellular cAMP increases within these cells, lac Z gene transcription is activated, resulting in the accumulation of its product, β-galactosidase. The measurement of β-galactosidase in this system provided a convenient, inexpensive, and nonradioactive method for detecting changes in the levels of intracellular cAMP.
LGIPR2 cells were grown in Dulbecco's Modified Eagle's Medium (DMEM) containing 4.5 g/L of glucose and 10% fetal calf serum. For each assay, 10^5 cells/well were seeded onto 24-well plates. After incubation overnight, peptides were added in various concentrations to the wells in the absence of 3-isobutyl-methylxanthine (IBMX) for 4 h, at which time maximal stimulation of β-galactosidase was determined. The medium was then removed and wells rinsed once with phosphate-buffered saline (PBS). The plates were then blotted briefly and frozen overnight at −70° C., and, after the addition of chlorophenol red-β-D-galactopyranoside, accumulated β-galactosidase was detected using a calorimetric assay, as described previously (Usdin, et al., 1993, Endocrinology, 133:2861–2870).
Values are expressed as the mean±SE of quadruplicate measurements.

For N=C(N)NCCC[C@H](N)C(=O)O [arginine], the “plasma insulin level at 30 min” value (fasted anesthetized rats; arginine 375 mg/kg infusion) was 69.7±5.8 μIU/ml.

In the case of exendin (9–39), the plasma glucose level (rats; increased from 7.5) is given as 8.7 mmol/L, the “reduction of postprandial insulin release” value (rats) is given as 50% and 48% and the “reduction of postprandial insulin release” value (rats; listed as exendin) is given as ~50%. For the same molecule, the “reduction of insulin release following intraduodenal glucose infusion” value [1] was 70%, the “GIP binding to its receptor” value (GIP receptor [2]) was “displaced GIP binding from its receptor” and the “cAMP generation in response to GIP stimulation” value (GIP receptor [2]) was “inhibits cAMP generation”.

In the case of “GIP (1–30)-NH2 (YAEGTFISDYSIAMDKIRQQDFVNWLLAQK-NH2; listed as Rattus norvegicus)”, the “stimulation of cAMP-dependent β-galactosidase production (versus GIP (1–42) / above control levels)” value (rat GIP receptor [3]) is given as “nearly equipotent” and the “binding of GIP (1–42) to the GIP receptor” value (GIP receptor [4]) is given as “competitively inhibited binding”.

For GIP (21–30)-NH2 (DFVNWLLAQK-NH2), the “stimulation of cAMP-dependent β-galactosidase production (versus GIP (1–42) / above control levels)” value (rat GIP receptor [3]) was “none”.

For “GIP (10–30)-NH2 (YSIAMDKIRQQDFVNWLLAQK-NH2; listed as Rattus norvegicus)”, the “stimulation of cAMP-dependent β-galactosidase production (versus GIP (1–42) / above control levels)” value (rat GIP receptor [3]) was “partial agonist activity”, the “β-gal level stimulated by peptide alone” value (rat GIP receptor [3]) was 0.39 O.D and the “antagonism of the cAMP stimulatory effect of GIP (1–42)” value (rat GIP receptor [5]) was “an antagonist, albeit a weak one”.

For CC[C@H](C)[C@H](NC(=O)[C@H](CO)NC(=O)[C@H](Cc1ccc(O)cc1)NC(=O)[C@H](CC(=O)O)NC(=O)[C@H](CO)NC(=O)[C@@H](NC(=O)[C@H](Cc1ccccc1)NC(=O)[C@@H](NC(=O)CNC(=O)[C@H](CCC(=O)O)NC(=O)[C@H](C)NC(=O)[C@@H](N)Cc1ccc(O)cc1)[C@@H](C)O)[C@@H](C)CC)C(=O)N[C@@H](C)C(=O)N[C@@H](CCSC)C(=O)N[C@@H](CC(=O)O)C(=O)N[C@@H](CCCCN)C(=O)N[C@H](C(=O)N[C@@H](CCCNC(=N)N)C(=O)N[C@@H](CCC(N)=O)C(=O)N[C@@H](CCC(N)=O)C(=O)N[C@@H](CC(=O)O)C(=O)N[C@@H](Cc1ccccc1)C(=O)N[C@H](C(=O)N[C@@H](CC(N)=O)C(=O)N[C@@H](Cc1c[nH]c2ccccc12)C(=O)N[C@@H](CC(C)C)C(=O)N[C@@H](CC(C)C)C(=O)N[C@@H](C)C(=O)N[C@@H](CCC(N)=O)C(=O)N[C@@H](CCCCN)C(=O)NCC(=O)N[C@@H](CCCCN)C(=O)N[C@@H](CCCCN)C(=O)N[C@@H](CC(N)=O)C(=O)N[C@@H](CC(=O)O)C(=O)N[C@@H](Cc1c[nH]c2ccccc12)C(=O)N[C@@H](CCCCN)C(=O)N[C@@H](Cc1c[nH]cn1)C(=O)N[C@@H](CC(N)=O)C(=O)N[C@@H](CC(C)C)C(=O)N[C@H](C(=O)N[C@@H](CCC(N)=O)C(=O)O)[C@@H](C)O)C(C)C)[C@@H](C)CC [GIP, glucose-dependent insulinotropic polypeptide], the “β-gal level stimulated by peptide alone” value (rat GIP receptor [3]) was 0.95±0.04 O.D, the “concentration giving maximum effect on β-galactosidase production” value (rat GIP receptor [3]; at 4 h) was 10^−8 M and the “plasma insulin level after infusion” value (fasted anesthetized rats; GIP 0.5 nmol/kg) was 43.5±2.7 μIU/ml. The “plasma insulin level after infusion” value (fasted anesthetized rats; GIP 1.0 nmol/kg) was 61.6±4.2 μIU/ml and the “plasma insulin level after infusion” value (fasted anesthetized rats; GIP 1.5 nmol/kg) was 72.4±3.5 μIU/ml.

For CC[C@H](C)[C@H](NC(=O)[C@H](Cc1ccccc1)NC(=O)[C@H](CCC(=O)O)NC(=O)[C@H](CCCCN)NC(=O)[C@H](C)NC(=O)[C@H](C)NC(=O)[C@H](CCC(N)=O)NC(=O)CNC(=O)[C@H](CCC(=O)O)NC(=O)[C@H](CC(C)C)NC(=O)[C@H](Cc1ccc(O)cc1)NC(=O)[C@H](CO)NC(=O)[C@H](CO)NC(=O)[C@@H](NC(=O)[C@H](CC(=O)O)NC(=O)[C@H](CO)NC(=O)[C@@H](NC(=O)[C@H](Cc1ccccc1)NC(=O)[C@@H](NC(=O)CNC(=O)[C@H](CCC(=O)O)NC(=O)[C@H](C)NC(=O)[C@@H](N)Cc1c[nH]cn1)[C@@H](C)O)[C@@H](C)O)C(C)C)C(=O)N[C@@H](C)C(=O)N[C@@H](Cc1c[nH]c2ccccc12)C(=O)N[C@@H](CC(C)C)C(=O)N[C@H](C(=O)N[C@@H](CCCCN)C(=O)NCC(=O)N[C@@H](CCCNC(=N)N)C(N)=O)C(C)C [GLP-1, glucagon like peptide-1 (7–36)], the “plasma insulin level at 30 min” value (fasted anesthetized rats; GLP-1 0.4 nmol/kg infusion) was 50.3±3.7 μIU/ml.

In the case of “GIP (16–30)-NH2 (KIRQQDFVNWLLAQK-NH2; listed as Rattus norvegicus)”, the “stimulation of cAMP-dependent β-galactosidase production (versus GIP (1–42) / above control levels)” value (rat GIP receptor [3]) is reported as “did not mimic GIP and none” and the “antagonism of the cAMP stimulatory effect of GIP (1–42)” value (rat GIP receptor [5]) is reported as “neither did they inhibit GIP-dependent effects”.

For “GIP (31–44) (GKKNDWKHNLTQRE; listed as Rattus norvegicus)”, the “stimulation of cAMP-dependent β-galactosidase production (versus GIP (1–42) / above control levels)” value (rat GIP receptor [3]) was “none”.
